The text below walks through data of patent publication US8609672B2, “Piperazinylpyrimidine analogues as protein kinase inhibitors” (University of the Pacific, priority 2010, dated 2013).

One test has as its system UO-31. Put plainly: NCI-60 SRB growth inhibition: UO-31. The format is cell-based, human. Conditions: UO-31, Renal cancer; 48 hours treatment.
The next test has as its system HCT-116. The test is described as follows: NCI-60 SRB growth inhibition: HCT-116. The class given is cell-based. Conditions: HCT-116, Colon cancer; 48 hours treatment.
A further test deals with HOP-62. The test is described as follows: NCI-60 SRB growth inhibition: HOP-62. The format is cell-based, human. Conditions: HOP-62, Non-small cell lung cancer; 48 hours treatment.
Another test deals with T1, ABL1(F317I) (Homo sapiens, UniProt P00519, F317I).
T1 construct: purchased Ambit Bioscience (assay service)
Put plainly: Kinase binding screening: ABL1(F317I). Conditions: 10 μM compound, phosphorylated form, read-out: B-POC (binding percentage of control). The method, then:
(§1) Biotinylated kinase ligand was immobilized onto streptavidin coated magnetic beads and washed with blocking buffer. The liganded beads were then incubated with DNA-tagged kinase in the presence of test compound for 1 h at room temperature. Binding reactions were carried out in 20% Seablock, 0.17×PBS, 0.005% Tween 20, 6 mM DTT, in a final volume of 0.04 mL. Beads were then washed with wash buffer (PBS, 0.05% Tween 20), and then incubated with elution buffer (PBS, 0.05% Tween […] non-biotinylated kinase ligand) and eluted. The kinase concentration in the eluate was then measured by quantitative PCR. […] The results of this single dose screening are reported in the form of binding percentage of control (B-POC) which is defined as follows:
(§2) [formula] The negative control signal is obtained by the vehicle and corresponds to B-POC=100%. The positive signal control is detected by a binding positive compound and is B-POC 0%. The B-POC results are the average of duplicate measurements. Only interactions with […] were considered significant and thus used for calculating the selectivity scores (Table 1) of the test compounds as follows:
(§3) [formula] […] The Kd is then calculated according to the following equation:
(§4) [formula] hill slope=−1. A non-linear least square fit with the Levenberg-Marquardt algorithm was implemented to fit the curves (FIG. 3). […]

The next test concerns DU-145. Put plainly: NCI-60 SRB growth inhibition: DU-145. The settings on record: for TGI: DU-145, Prostate cancer, 48 hours treatment; for CC50: Homo sapiens, DU-145, 48 h, read-out: LC50 (the source's name). The class given is cell-based, human.
Another test deals with CCRF-CEM. Put plainly: NCI-60 SRB growth inhibition: CCRF-CEM. The format is cell-based, human. The settings on record: Leukemia, 48 hours treatment.
Another test relates to PC-3. Put plainly: NCI-60 SRB growth inhibition: PC-3. The class given is cell-based, human. The settings on record: PC-3, Prostate cancer; 48 hours treatment.
Another test has as its system HOP-92. The test is described as follows: NCI-60 SRB growth inhibition: HOP-92. The class given is cell-based, human. Conditions: HOP-92, Non-small cell lung cancer; 48 hours treatment.
In a further test the test system is OVCAR-3. Put plainly: NCI-60 SRB growth inhibition: OVCAR-3. The format is cell-based, human. Conditions: OVCAR-3, Ovarian cancer; 48 hours treatment.
A further test relates to NCI-H522. Put plainly: NCI-60 SRB growth inhibition: NCI-H522. The settings on record: NCI-H522, Non-small cell lung cancer; 48 hours treatment. The format is cell-based, human.
A further test relates to NCI-H226. The test is described as follows: NCI-60 SRB growth inhibition: NCI-H226. The class given is cell-based, human. Conditions: NCI-H226, Non-small cell lung cancer; 48 hours treatment.
The next test has as its system NCI-H460. The test is described as follows: NCI-60 SRB growth inhibition: NCI-H460. The class given is cell-based, human. The settings on record: NCI-H460, Non-small cell lung cancer, 48 hours treatment; for CC50: Homo sapiens, read-out: LC50 (the source's name).
A further test deals with SF-539. The test is described as follows: NCI-60 SRB growth inhibition: SF-539. The class given is cell-based, human. Conditions: SF-539, CNS cancer; 48 hours treatment.
A further test deals with T2, ABL1(F317L) (Homo sapiens, UniProt P00519, F317L).
T2 construct: purchased Ambit Bioscience (assay service)
The test is described as follows: Kinase binding screening: ABL1(F317L). Conditions: 10 μM compound, phosphorylated form, read-out: B-POC (binding percentage of control). The method, then:
as §1, §2, §3, §4

Test [1] deals with MDA-MB-468. Put plainly: Cell cycle analysis of MDA-MB-468 cells. The format is cell-based, human. The settings on record: MDA-MB-468, within 24 hours.
Test [2] relates to MDA-MB-468. The test is described as follows: Annexin V assay, MDA-MB-468 cells. The class given is cell-based, human. The settings on record: MDA-MB-468, higher doses, within 24 hours.

A value given as a limit tells only on which side of the number the result lay.

T1 sequence (P00519 whole entry F317I): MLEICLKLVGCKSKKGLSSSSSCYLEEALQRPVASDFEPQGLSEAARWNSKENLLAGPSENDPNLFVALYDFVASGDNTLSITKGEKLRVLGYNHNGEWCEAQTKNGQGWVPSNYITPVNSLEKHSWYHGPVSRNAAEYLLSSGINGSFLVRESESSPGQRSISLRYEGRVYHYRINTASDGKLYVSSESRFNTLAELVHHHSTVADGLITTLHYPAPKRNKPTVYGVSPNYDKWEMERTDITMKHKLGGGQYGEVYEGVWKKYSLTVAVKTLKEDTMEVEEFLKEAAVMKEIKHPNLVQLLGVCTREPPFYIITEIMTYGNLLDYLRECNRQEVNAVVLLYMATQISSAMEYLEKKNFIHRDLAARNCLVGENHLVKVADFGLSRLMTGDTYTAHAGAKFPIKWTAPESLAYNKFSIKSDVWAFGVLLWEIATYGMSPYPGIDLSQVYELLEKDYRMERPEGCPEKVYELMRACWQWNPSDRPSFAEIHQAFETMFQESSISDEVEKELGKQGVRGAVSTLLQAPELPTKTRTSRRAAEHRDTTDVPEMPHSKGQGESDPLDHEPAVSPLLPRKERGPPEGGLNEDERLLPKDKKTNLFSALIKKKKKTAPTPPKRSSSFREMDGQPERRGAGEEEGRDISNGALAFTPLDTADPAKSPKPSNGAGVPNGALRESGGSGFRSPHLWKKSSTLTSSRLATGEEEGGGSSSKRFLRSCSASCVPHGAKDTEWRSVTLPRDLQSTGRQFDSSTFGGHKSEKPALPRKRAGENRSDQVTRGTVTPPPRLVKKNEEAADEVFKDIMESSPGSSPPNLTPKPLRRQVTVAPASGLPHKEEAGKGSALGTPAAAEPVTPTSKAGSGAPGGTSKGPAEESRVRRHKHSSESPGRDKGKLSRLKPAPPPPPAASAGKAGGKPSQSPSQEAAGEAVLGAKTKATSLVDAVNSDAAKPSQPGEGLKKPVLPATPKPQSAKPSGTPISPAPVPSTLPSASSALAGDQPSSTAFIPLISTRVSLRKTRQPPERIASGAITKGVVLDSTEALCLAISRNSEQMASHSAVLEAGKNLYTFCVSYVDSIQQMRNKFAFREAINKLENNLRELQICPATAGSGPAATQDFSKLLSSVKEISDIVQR
T2 sequence (P00519 whole entry F317L): as the sequence (P00519 whole entry F317I) above, with I317L counted along it

In the case of `c1ccc(Cc2cnc(N3CCN(c4ncnc5ccccc45)CC3)nc2)cc1` [Compound 4, 4-(4-(5-benzylpyrimidin-2-yl)piperazin-1-yl)quinazoline], the TGI (commonly the concentration at which net growth stops) with UO-31 is 38.40 µM; in the test on HCT-116 it was 13.20 µM; in the test with HOP-62, 51.60 µM; in the test with DU-145, 30.70 µM; in the test with CCRF-CEM, 64.40 µM; with PC-3 it was over 100 µM. The TGI in the test on HOP-92 worked out at 24.20 µM; with OVCAR-3 it was 23.20 µM; in the test with NCI-H522, 40.30 µM; in the test on NCI-H226, 48.40 µM; in the test on NCI-H460, 23.70 µM; in the test with SF-539, 28.50 µM. Also, at ABL1(F317I), the remaining activity at 10 µM amounted to 30%. Besides, the CC50 in the test with DU-145 worked out at 79.8 µM; with NCI-H460 it was 55 µM.

On to `CCc1cnc(N2CCN(C(=O)c3ccc(CNc4ncnc5ccccc45)cc3)CC2)nc1` [Compound 15, (4-(5-ethylpyrimidin-2-yl)piperazin-1-yl)(4-((quinazolin-4-ylamino)methyl)phenyl)methanone], for which the TGI in the test on UO-31 is 60.50 µM; with HCT-116, 25.00 µM; with HOP-62, over 100 µM; in the test with DU-145 it was over 100 µM; in the test with CCRF-CEM, 60.90 µM; in the test with PC-3, over 100 µM. The TGI is 80.09 µM in the test with HOP-92; over 100 µM in the test with OVCAR-3; 55.40 µM with NCI-H522; over 100 µM in the test on NCI-H226; 30.70 µM in the test on NCI-H460; over 100 µM in the test on SF-539. In addition, on ABL1(F317L), the remaining activity at 10 µM stood at 6.8%. The cell cycle effect result with MDA-MB-468 [1] is “arrest at the G2/M phase of the cell cycle”. The CC50 with DU-145 and in the test with NCI-H460 was over 100 µM throughout. Further, the “apoptosis (Annexin V)” value in the test with MDA-MB-468 [2] was “a significant fraction of the tumor cells undergo apoptosis”.

For the compound `O=C(c1cccc(Nc2ncnc3ccccc23)c1)N1CCN(c2ncc(Cc3ccccc3)cn2)CC1` [Compound 16, (4-(5-benzylpyrimidin-2-yl)piperazin-1-yl)(3-(quinazolin-4-ylamino)phenyl)methanone], the TGI in the test with UO-31 is 1.82 µM; in the test with HCT-116, 3.55 µM; in the test on HOP-62, 3.47 µM; with DU-145 it was 6.46 µM; in the test on PC-3, 2.88 µM; in the test with OVCAR-3, 8.13 µM. The TGI amounted to 2.09 µM in the test on NCI-H522, 2.09 µM in the test on NCI-H226, 4.27 µM in the test on NCI-H460 and 4.90 µM with SF-539. The remaining activity at 10 µM on ABL1(F317I) was found to be 20%. Also, the CC50 with DU-145 and in the test with NCI-H460 was over 100 µM throughout.
